Assay results as given in US20100267784A1, “NOVEL 4,5-DIHYDROISOXAZOLES WITH ESTROGENIC ACTIVITY” (priority 2007, published 2010).

Columns and labels:
[1] = biological target: T1, ERα (Homo sapiens, UniProt P03372); test: ERα reporter (luciferase) transactivation assay in transfected HEK293 cells; assay type: cell-based; set-up: expressed in transfected cells; host or cells: HEK293; conditions: sample concentration 10 μM, 24 hours, mean of at least three independent transfections
T1 sequence (P03372 1-595): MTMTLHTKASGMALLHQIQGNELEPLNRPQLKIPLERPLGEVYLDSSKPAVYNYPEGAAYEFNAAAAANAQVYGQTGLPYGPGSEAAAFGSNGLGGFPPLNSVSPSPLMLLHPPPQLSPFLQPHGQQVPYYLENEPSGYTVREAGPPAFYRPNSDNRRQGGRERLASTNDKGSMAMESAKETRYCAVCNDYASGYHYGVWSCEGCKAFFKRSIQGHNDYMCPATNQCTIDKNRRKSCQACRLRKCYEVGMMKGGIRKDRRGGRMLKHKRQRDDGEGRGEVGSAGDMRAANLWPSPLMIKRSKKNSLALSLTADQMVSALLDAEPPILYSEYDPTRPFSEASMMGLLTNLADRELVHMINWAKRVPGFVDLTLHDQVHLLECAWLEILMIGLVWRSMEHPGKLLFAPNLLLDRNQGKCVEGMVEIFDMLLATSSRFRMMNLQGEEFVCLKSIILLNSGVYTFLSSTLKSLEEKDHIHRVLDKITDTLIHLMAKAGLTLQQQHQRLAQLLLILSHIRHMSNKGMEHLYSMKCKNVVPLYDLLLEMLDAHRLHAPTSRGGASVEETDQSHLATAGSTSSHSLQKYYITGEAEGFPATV
Description: (§1) Determination of the Estrogen Activity of the Compounds: Cell Culture, Transfection and Reporter Assays
(§2) All other reagents were of reagent grade from Sigma or Fluka. One day before transfection, HEK293 cells were seeded in 48-well plates (70×10^3 cells per well) in phenol-free Dulbecco's modified Eagle medium supplemented with 5% delipidated fetal bovine serum (Sigma) and antibiotics. After a medium change, the cells were transfected for 4 hours with 5 ng ERα or ERβ expression vector, 75 ng reporter plasmid pERE2TATA-LUC and 20 ng control plasmid pCMVβ by the calcium phosphate method. After transfection, the cells received fresh medium containing either vehicle (0.1% v/v) or test compound (10 μM). After 24 hours, the cells were washed, lysed and luciferase and β-galactosidase activities were determined from 20 μl of lysates with the Victor^2TM reader (PerkinElmer Wallac, Turku, Finland). […] The data are means ±SEM of at least three independent transfections.

[2] = biological target: ERβ (Homo sapiens, UniProt Q92731); test: ERβ reporter (luciferase) transactivation assay in transfected HEK293 cells; assay type: cell-based; set-up: expressed in transfected cells; host or cells: HEK293; conditions: for ERβ receptor activation relative to 10 nM E2 corresponding 100: sample concentration 10 μM, 24 hours, mean of at least three independent transfections; for activation at 10 µM: HEK293, 24 h, read-out: ERβ receptor activation relative to 10 nM E2 corresponding 100, sample concentration 10 μM, mean of at least three independent transfections
ERβ, sequence (Q92731 whole entry): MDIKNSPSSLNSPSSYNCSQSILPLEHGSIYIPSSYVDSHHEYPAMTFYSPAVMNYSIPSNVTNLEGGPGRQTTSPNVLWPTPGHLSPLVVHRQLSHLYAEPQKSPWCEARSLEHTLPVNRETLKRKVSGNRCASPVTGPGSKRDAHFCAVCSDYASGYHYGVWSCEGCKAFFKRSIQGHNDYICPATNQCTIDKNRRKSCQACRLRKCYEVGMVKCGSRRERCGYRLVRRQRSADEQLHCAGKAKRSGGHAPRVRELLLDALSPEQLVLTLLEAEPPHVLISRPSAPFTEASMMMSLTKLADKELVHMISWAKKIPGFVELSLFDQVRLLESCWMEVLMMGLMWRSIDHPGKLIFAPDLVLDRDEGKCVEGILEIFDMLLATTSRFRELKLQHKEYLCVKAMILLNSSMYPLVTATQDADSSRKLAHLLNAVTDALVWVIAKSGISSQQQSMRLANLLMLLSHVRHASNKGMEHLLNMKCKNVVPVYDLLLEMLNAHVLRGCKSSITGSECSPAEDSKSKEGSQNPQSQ
Description: as §1, §2

Structure (SMILES) | ERα receptor activation relative to 10 nM E2 corresponding 100 [1] [%] | ERβ receptor activation relative to 10 nM E2 corresponding 100 [2] [%] | activation at 10 µM [2] [%]
Oc1ccc(CC2CC(CCc3ccccc3)=NO2)cc1 (single isomer, unassigned) [94a, 5-(4-Hydroxy-benzyl)-3-phenethyl-4,5-dihydro-isoxazole] | 34.2 | 9.1 | –
Oc1ccc(CC2CC(CCc3ccccc3)=NO2)cc1 (single isomer, unassigned) [94b, 5-(4-Hydroxy-benzyl)-3-phenethyl-4,5-dihydro-isoxazole] | 105.2 | 42.4 | –
Oc1ccc(CC2CC(CCc3ccccc3O)=NO2)cc1 (single isomer, unassigned) [95a, 5-(4-Hydroxy-benzyl)-3-[2-(2-hydroxy-phenyl)-ethyl]-4,5-dihydro-isoxazole] | 20.4 | 2.4 | –
Oc1ccc(CC2CC(CCc3ccccc3O)=NO2)cc1 (single isomer, unassigned) [95b, 5-(4-Hydroxy-benzyl)-3-[2-(2-hydroxy-phenyl)-ethyl]-4,5-dihydro-isoxazole] | 6.2 | 0.6 | –
Oc1ccc(CCC2=NOC(Cc3ccc(O)cc3)C2)cc1 (single isomer, unassigned) [96a, 5-(4-Hydroxy-benzyl)-3-[2-(4-hydroxy-phenyl)-ethyl]-4,5-dihydro-isoxazole] | 76.2 | 12.0 | –
Oc1ccc(CCC2=NOC(Cc3ccc(O)cc3)C2)cc1 (single isomer, unassigned) [96b, 5-(4-Hydroxy-benzyl)-3-[2-(4-hydroxy-phenyl)-ethyl]-4,5-dihydro-isoxazole] | 81.4 | 4.1 | –
Oc1ccccc1CCC1=NOC(Cc2ccc(F)cc2)C1 (single isomer, unassigned) [97a, 5-(4-Fluoro-benzyl)-3-[2-(2-hydroxy-phenyl)-ethyl]-4,5-dihydro-isoxazole] | 82.0 | 3.4 | –
Oc1ccccc1CCC1=NOC(Cc2ccc(F)cc2)C1 (single isomer, unassigned) [97b, 5-(4-Fluoro-benzyl)-3-[2-(2-hydroxy-phenyl)-ethyl]-4,5-dihydro-isoxazole] | 11.1 | −2.4 | –
Oc1ccc(CCC2=NOC(Cc3ccc(F)cc3)C2)cc1 (single isomer, unassigned) [98a, 5-(4-Fluoro-benzyl)-3-[2-(4-hydroxy-phenyl)-ethyl]-4,5-dihydro-isoxazole] | 77.8 | 28.4 | –
Oc1ccc(CCC2=NOC(Cc3ccc(F)cc3)C2)cc1 (single isomer, unassigned) [98b, 5-(4-Fluoro-benzyl)-3-[2-(4-hydroxy-phenyl)-ethyl]-4,5-dihydro-isoxazole] | 5.7 | 4.4 | –
Oc1ccc(CCCC2=NOC(Cc3ccccc3)C2)cc1 (single isomer, unassigned) [99a, 5-Benzyl-3-[3-(4-hydroxy-phenyl)-propyl]-4,5-dihydro-isoxazole] | 153.7 | 78.2 | –
Oc1ccc(CCCC2=NOC(Cc3ccccc3)C2)cc1 (single isomer, unassigned) [99b, 5-Benzyl-3-[3-(4-hydroxy-phenyl)-propyl]-4,5-dihydro-isoxazole] | 75.1 | 19.8 | –
Oc1ccc(CC2CC(CCCc3ccccc3)=NO2)cc1 (single isomer, unassigned) [100a, 5-(4-Hydroxy-benzyl)-3-(3-phenyl-propyl)-4,5-dihydro-isoxazole] | 67.1 | 4.7 | –
Oc1ccc(CC2CC(CCCc3ccccc3)=NO2)cc1 (single isomer, unassigned) [100b, 5-(4-Hydroxy-benzyl)-3-(3-phenyl-propyl)-4,5-dihydro-isoxazole] | 97.2 | 17.0 | –
Oc1ccc(CCCC2=NOC(Cc3ccc(O)cc3)C2)cc1 (single isomer, unassigned) [101a, 5-(4-Hydroxy-benzyl)-3-[3-(4-hydroxy-phenyl)-propyl]-4,5-dihydro-isoxazole] | 14.4 | −0.9 | –
Oc1ccc(CCCC2=NOC(Cc3ccc(O)cc3)C2)cc1 (single isomer, unassigned) [101b, 5-(4-Hydroxy-benzyl)-3-[3-(4-hydroxy-phenyl)-propyl]-4,5-dihydro-isoxazole] | 13.6 | 10.6 | –
Oc1ccc(CC2CC(CCCc3ccc(O)c(O)c3)=NO2)cc1 (single isomer, unassigned) [103a, 3-[3-(3,4-Dihydroxy-phenyl)-propyl]-5-(4-hydroxy-benzyl)-4,5-dihydro-isoxazole] | 1.7 | −1.1 | –
Oc1ccc(CC2CC(CCCc3ccc(O)c(O)c3)=NO2)cc1 (single isomer, unassigned) [103b, 3-[3-(3,4-Dihydroxy-phenyl)-propyl]-5-(4-hydroxy-benzyl)-4,5-dihydro-isoxazole] | 1.4 | −0.7 | –
Oc1ccccc1CCC1=NOC(CCc2ccccc2)C1 (single isomer, unassigned) [104a, 3[2-(2-Hydroxy-phenyl)-ethyl]-5-phenethyl-4,5-dihydro-isoxazole] | 4.5 | – | 4.2
Oc1ccccc1CCC1=NOC(CCc2ccccc2)C1 (single isomer, unassigned) [104b, 3[2-(2-Hydroxy-phenyl)-ethyl]-5-phenethyl-4,5-dihydro-isoxazole] | 21.8 | 2.6 | –
Oc1cccc(CCC2=NOC(CCc3ccccc3)C2)c1 (single isomer, unassigned) [105a, 3-[2-(3-Hydroxy-phenyl)-ethyl]-5-phenethyl-4,5-dihydro-isoxazole] | 8.3 | – | 2.6
Oc1cccc(CCC2=NOC(CCc3ccccc3)C2)c1 (single isomer, unassigned) [105b, 3-[2-(3-Hydroxy-phenyl)-ethyl]-5-phenethyl-4,5-dihydro-isoxazole] | 3.0 | 3.6 | –
